From US20230220047A1, “PEPTIDES FOR TREATMENT OF SEPSIS AND CANCER” (NORWEGIAN UNIVERSITY OF SCIENCE AND TECHNOLOGY (NTNU), priority 2020, published 2023)

Columns and labels:
[1] = system: ANBL-6 multiple myeloma cells; assay: CellTiter-Glo cell viability assay, ANBL-6; assay type: cell-based
[2] = system: THP-1 WT cells and THP-1 TRAM^CHERRY; assay: Confocal analysis of bacterial bioparticle uptake by THP-1 cells; assay type: cell-based, human; conditions: 15 μM, 30 min pre-incubation
Protocol: Cells were pre-incubated with Pen or P7-Pen peptides, followed by addition of Alexa Fluor 488-labeled bioparticles for the times indicated (15, 30 or 45 min). Fluorescent bacteria particles were counted by spot-detection in Bitplane Imaris imaging software and used to calculate the number of particles per cell. […] Pre-incubation with 3 μM cytochalasin D (CytoD, and inhibitor of actin polymerization) inhibited uptake of E. coli to a similar extent as P7-Pen.
THP-1 cells, THP-1^cherry cells or human PBMC were seeded in 24-well glass-bottom plates (MatTek Corporation), 125,000 cells/well. The THP-1 cells were differentiated into macrophages with 60 ng/ml PMA for 72 h and thereafter rested for 48 h, whereas the PBMC were used the day after isolation. The P7-penatratin peptide or control peptide was added to the cells 30 min before stimulation at 15 μM concentration. If used, 3 μM cytochalasin D (CytoD) was added simultaneously. […] A spot detection mode in the Bitplan Imaris software was used to define individual phagosomes and cells were counted manually. […] Fluorescence voxel intensity of TRAM^cherry at the phagosome is also presented. Statistical significance was calculated in GraphPad Prism by One-way ANOVA Kruskal-Wallis multiple comparison test. […]

S. aureus particles = assay: Whole blood assay, S. aureus particle stimulation; assay type: cell-based, human; conditions: 20 μM, 4 h
Protocol: Whole blood samples from healthy donors were pre-treated with 20 μM peptides for 1 h then stimulated with TLR ligands for 4 h before plasma collection. Results are for at least 6 donors. The Wilcoxon matched-pairs signed rank test was used for statistical analysis between 2 groups in Prizm 8.2.1. In each graph, circles indicate whole blood pre-treated with water, squares indicate blood pre-treated with control peptide (average for treatment with Pen and C3-Pen), and triangles indicate pre-treatment with P7-Pen.
To evaluate the effect of peptides in an ex vivo system, a human whole blood model was used. Peripheral venous blood was drawn from 6 healthy donors into sterile polypropylene tubes (Thermo Scientific™ Nunc™ Biobanking and Cell Culture Cryogenic Tubes) containing the anti-coagulant Lepirudin (Refludan®; Celgene). Peptide solutions were made by diluting peptide stocks in DPBS (Dulbecco's Phosphate Buffered Saline with MgCl2 and CaCl2; Sigma-Aldrich) to obtain a final concentration of 140 μM. Peptide solution or DPBS was distributed in equal volume (50 μL) to 1.8 mL sterile polypropylene tubes (Thermo Scientific™Nunc™ Biobanking and Cell Culture Cryogenic Tubes). 250 μL whole blood was then added to the 1.8 mL tubes containing peptide solution or DPBS, and incubated at 37° C. under constant rotation for 1 h (concentration of peptides for pre-incubation: 23.3 μM). […]

TLR4 = assay: Primary human macrophages stimulated with LPS: cytokine mRNA and p38 MAPK phosphorylation; assay type: cell-based; conditions: primary human macrophages (data not shown)
Protocol: Primary human macrophages (PBMC derived, differentiated in media with 10% human serum and M-CSF 20 ng/ml, 7 days) were stimulated with K12 LPS (100 ng/ml), FSL-1 (100 ng/ml) or CL075 (3 μg/ml). […] (B) qPCR for mRNA expression of IFNβ, IL-6, TNF and IL-1β, average for three biological replicates, error bars ±SD.
The effect of P7-Pen on TLR2-mediated pro-inflammatory cytokine expression was investigated.

TLR7 = assay: qPCR of R837-induced TLR7-mediated cytokine expression in human monocytes; assay type: cell-based; conditions: 15 μM, R837 1 μg/ml
Protocol: Cells were pre-treated with 15 μM peptides for 30 min, followed by the addition of LPS (100 ng/ml) (A), R837 (1 μg/ml) (B) or CL075 (1 μg/ml) for increasing lengths of time.
As previously shown, P7-Pen inhibits TLR8-mediated IFNβ expression in human monocytes, without significant effect on the expression of pro-inflammatory cytokines. Human cells express one more endosomal RNA sensor in addition to TLR8: TLR7, which uses similar signaling pathways to induce cytokine expression as the TLR8 receptor. To investigate the effect of P7-Pen on TLR7-mediated signaling, human monocytes were stimulated with imiquimod (R837), an imidazoquinoline amine analog to guanosine, which activates only TLR7, not TLR8 (Lee et al., PNAS 100(11): 6646-6651 (2003)). […] TNF and IL-1β expression were not induced in monocytes by the R837 TLR7 agonist even in control treated cells (FIG. 18C).

Substance | combination effect with melphalan at low melphalan concentrations ([1]; ANBL-6, 5 μM peptide) | cytotoxic effect of combination with melphalan relative to peptide or melphalan alone ([1]; ANBL-6, 5 μM peptide plus melphalan 8-20 μM, 48 h) | uptake of S. aureus bioparticles ([2]; THP-1 TRAM^CHERRY) | uptake of E. coli particles ([2]; THP-1 WT and THP-1 TRAM^CHERRY) | S. aureus-mediated IFNβ secretion (S. aureus particles) | S. aureus-mediated TNF, IL-6 and IL-1β pro-inflammatory cytokine secretion (S. aureus particles) | TLR4-mediated expression of TNF, IL-6 and IL-1β mRNA (TLR4) | TLR7-mediated IFNβ mRNA expression (TLR7) | TLR7-mediated IL-6 expression (TLR7)
Ac-ITVAASVTLTGRQIKIWFQNRRMKWKK-NH2 [Peptide P7-A4-Pen] | synergistic effect | much-enhanced cytotoxic effect | – | – | – | – | – | – | –
Ac-ITVYASVTLTGRQIKIWFQNRRMKWKK-NH2 [Peptide P7-Pen] | – | – | inhibited | inhibited | significantly downregulated | significantly decreased | totally abrogated | inhibits | delayed activation
